# Reference: US8030083B2, “Method of analyzing protein structural affinity relationship” (Eisai R & D Management Co., Ltd., priority 2004, dated 2011)
# How the values were obtained:
# water solubility = assay type: physicochemical
# CDK = settings: Knockaert et al.; cited from earlier work
# [1] = molecular target: T1, mitochondrial malate dehydrogenase (mMDH) (Homo sapiens, UniProt P40926); settings: Knockaert et al.; cited from earlier work
# T1 sequence (P40926 25-338): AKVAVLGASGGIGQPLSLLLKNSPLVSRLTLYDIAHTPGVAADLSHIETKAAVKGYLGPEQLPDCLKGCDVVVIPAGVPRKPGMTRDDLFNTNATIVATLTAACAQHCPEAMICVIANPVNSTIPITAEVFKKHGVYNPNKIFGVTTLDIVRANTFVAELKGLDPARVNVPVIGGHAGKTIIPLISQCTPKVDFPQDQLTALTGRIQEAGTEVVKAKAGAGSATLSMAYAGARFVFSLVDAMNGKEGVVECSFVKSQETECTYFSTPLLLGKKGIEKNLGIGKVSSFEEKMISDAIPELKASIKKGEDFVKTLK
compound,measurement,setting,value
NS(=O)(=O)c1ccc(S(=O)(=O)Nc2cccc3c(Cl)c[nH]c23)cc1 [E7070],water solubility,water solubility,poor in water solubility
O=C1Cc2c([nH]c3ccccc23)-c2ccccc2N1 [paullone],inhibition of CDK,CDK,inhibitor
same,inhibition of mMDH activity,[1],inhibits mMDH activity with certainty
